According to PubChem BioAssay (NCI):
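Each compound was tested at five concentrations against cells in 96-well plates for 48 hours. GI50 = concentration required for 50% inhibition of growth. TGI is the concentration that stops growth completely.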

How the values were obtained:
Experiment in all cases: NCI anticancer screen, dose series, 48 h
HCT-15 colon = test system: HCT-15 colon
BT-549 breast = test system: BT-549 breast
NCI-H460 lung = test system: NCI-H460 lung
MDA-MB-231 breast = test system: MDA-MB-231 breast
EKVX NSCLC = test system: EKVX NSCLC
U251 CNS = test system: U251 CNS
MALME-3M melanoma = test system: MALME-3M melanoma
CCRF-CEM leukemia = test system: CCRF-CEM leukemia
PC-3 prostate = test system: PC-3 prostate
SK-MEL-28 melanoma = test system: SK-MEL-28 melanoma
RPMI-8226 leukemia = test system: RPMI-8226 leukemia
HS 578T breast = test system: HS 578T breast
NCI-H23 lung = test system: NCI-H23 lung
786-0 renal = test system: 786-0 renal
HL-60(TB) leukemia = test system: HL-60(TB) leukemia
HCC-2998 colon = test system: HCC-2998 colon
SF-539 CNS = test system: SF-539 CNS
HT29 colon = test system: HT29 colon
UACC-257 melanoma = test system: UACC-257 melanoma
SNB-75 CNS = test system: SNB-75 CNS
MDA-MB-435 = test system: MDA-MB-435
IGROV1 ovarian = test system: IGROV1 ovarian
SF-268 CNS = test system: SF-268 CNS
M14 melanoma = test system: M14 melanoma
SF-295 CNS = test system: SF-295 CNS
HOP-92 NSCLC = test system: HOP-92 NSCLC
SW-620 colon = test system: SW-620 colon
NCI/ADR-RES ovarian = test system: NCI/ADR-RES ovarian
COLO 205 colon = test system: COLO 205 colon
SNB-19 CNS = test system: SNB-19 CNS
SR leukemia = test system: SR leukemia
RXF 393 renal = test system: RXF 393 renal
HOP-62 NSCLC = test system: HOP-62 NSCLC
CAKI-1 renal = test system: CAKI-1 renal
HCT-116 colon = test system: HCT-116 colon
OVCAR-5 ovarian = test system: OVCAR-5 ovarian
NCI-H522 lung = test system: NCI-H522 lung
SK-MEL-2 melanoma = test system: SK-MEL-2 melanoma
OVCAR-3 ovarian = test system: OVCAR-3 ovarian
TK-10 renal = test system: TK-10 renal
KM12 colon = test system: KM12 colon
A549 NSCLC = test system: A549 NSCLC
K-562 leukemia = test system: K-562 leukemia
SK-MEL-5 melanoma = test system: SK-MEL-5 melanoma
DU-145 prostate = test system: DU-145 prostate
UO-31 renal = test system: UO-31 renal
MCF7 breast = test system: MCF7 breast
SK-OV-3 ovarian = test system: SK-OV-3 ovarian
OVCAR-4 ovarian = test system: OVCAR-4 ovarian
NCI-H226 lung = test system: NCI-H226 lung
OVCAR-8 ovarian = test system: OVCAR-8 ovarian
T-47D breast = test system: T-47D breast
ACHN renal = test system: ACHN renal
A498 renal = test system: A498 renal
MOLT-4 leukemia = test system: MOLT-4 leukemia
UACC-62 melanoma = test system: UACC-62 melanoma
SN12C renal = test system: SN12C renal
LOX IMVI melanoma = test system: LOX IMVI melanoma

With `Cc1ccc(SC2=C(N(C)C)C(=O)c3ccccc3C2=O)cc1` the TGI (HCT-15 colon) was > 39.9 µM, the TGI (BT-549 breast) was 26.6 µM and the TGI (NCI-H460 lung) was 18.5 µM. It also gave a TGI (MDA-MB-231 breast) of 20.1 µM, a TGI (EKVX NSCLC) of 20.1 µM and a TGI (U251 CNS) of 23.7 µM. The TGI (MALME-3M melanoma) was 18.4 µM, the TGI (CCRF-CEM leukemia) was 17.5 µM and the TGI (PC-3 prostate) was 18.7 µM. The TGI (SK-MEL-28 melanoma) was 25.8 µM, the TGI (RPMI-8226 leukemia) was 11.7 µM and the TGI (HS 578T breast) was > 27.6 µM. For the same compound, the TGI (NCI-H23 lung) was 10.4 µM, the TGI (786-0 renal) was > 32.2 µM and the TGI (HL-60(TB) leukemia) was 16.9 µM. For the same compound, the TGI (HCC-2998 colon) was 32.4 µM, the TGI (SF-539 CNS) was 9.71 µM and the TGI (HT29 colon) was 31 µM. The TGI (UACC-257 melanoma) was 15.6 µM, the TGI (SNB-75 CNS) was 43.5 µM and the TGI (MDA-MB-435) was 1.22 µM. The TGI (IGROV1 ovarian) was 17.6 µM, the TGI (SF-268 CNS) was 18.4 µM and the TGI (M14 melanoma) was 16.4 µM. It also gave a TGI (SF-295 CNS) of 25.6 µM, a TGI (HOP-92 NSCLC) of 18.3 µM and a TGI (SW-620 colon) of 16.1 µM. It also gave a TGI (NCI/ADR-RES ovarian) of 6.35 µM, a TGI (COLO 205 colon) of 51.5 µM and a TGI (SNB-19 CNS) of 29.6 µM. The TGI (SR leukemia) was 3.84 µM, the TGI (RXF 393 renal) was 20.8 µM and the TGI (HOP-62 NSCLC) was 23.6 µM. The TGI (CAKI-1 renal) was 9.73 µM, the TGI (HCT-116 colon) was 7.26 µM and the TGI (OVCAR-5 ovarian) was 40.3 µM. The TGI (NCI-H522 lung) was 10.5 µM, the TGI (SK-MEL-2 melanoma) was 23.5 µM and the TGI (OVCAR-3 ovarian) was 2.96 µM. For the same compound, the TGI (TK-10 renal) was 21.6 µM, the TGI (KM12 colon) was 16.4 µM and the TGI (A549 NSCLC) was 30.2 µM. The TGI (K-562 leukemia) was 7.68 µM, the TGI (SK-MEL-5 melanoma) was 8.6 µM and the TGI (DU-145 prostate) was 23 µM. It also gave a TGI (UO-31 renal) of 21.9 µM, a TGI (MCF7 breast) of 17.5 µM and a TGI (SK-OV-3 ovarian) of 41.9 µM. The TGI (OVCAR-4 ovarian) was 24.8 µM, the TGI (NCI-H226 lung) was 25.8 µM and the TGI (OVCAR-8 ovarian) was 6.44 µM. The TGI (T-47D breast) was > 38 µM, the TGI (ACHN renal) was 21.4 µM and the TGI (A498 renal) was 50.3 µM. The TGI (MOLT-4 leukemia) was 12.4 µM, the TGI (UACC-62 melanoma) was 17.8 µM and the TGI (SN12C renal) was 16.6 µM. The TGI (LOX IMVI melanoma) was 24.6 µM.

`CCOC(=O)c1cnc2c(C)cc(C)cc2c1NCCCN(C)C` gave a GI50 (HCT-15 colon) of 3.69 µM, a TGI (HCT-15 colon) of 51.7 µM and a GI50 (BT-549 breast) of 11.5 µM. It also gave a TGI (BT-549 breast) of 39.9 µM, a GI50 (NCI-H460 lung) of 2.57 µM and a TGI (NCI-H460 lung) of 9.14 µM. The GI50 (MDA-MB-231 breast) was 3.1 µM, the TGI (MDA-MB-231 breast) was 20.4 µM and the GI50 (EKVX NSCLC) was 4.22 µM. It also gave a TGI (EKVX NSCLC) of 35.6 µM, a GI50 (U251 CNS) of 4.66 µM and a TGI (U251 CNS) of 76.2 µM. The GI50 (MALME-3M melanoma) was 5.84 µM, the TGI (MALME-3M melanoma) was 21.7 µM and the GI50 (CCRF-CEM leukemia) was 13.6 µM. The TGI (CCRF-CEM leukemia) was 62.7 µM, the GI50 (PC-3 prostate) was 4.08 µM and the TGI (PC-3 prostate) was 85.1 µM. The GI50 (SK-MEL-28 melanoma) was 13 µM, the TGI (SK-MEL-28 melanoma) was 26.1 µM and the GI50 (RPMI-8226 leukemia) was 17 µM. The TGI (RPMI-8226 leukemia) was 46.5 µM, the GI50 (HS 578T breast) was 4.37 µM and the TGI (HS 578T breast) was 28.3 µM. For the same compound, the GI50 (NCI-H23 lung) was 4.29 µM, the TGI (NCI-H23 lung) was 21.4 µM and the GI50 (786-0 renal) was 4.91 µM. For the same compound, the TGI (786-0 renal) was 25.7 µM, the GI50 (HL-60(TB) leukemia) was 5.6 µM and the TGI (HL-60(TB) leukemia) was 57.1 µM. The GI50 (HCC-2998 colon) was 5.35 µM, the TGI (HCC-2998 colon) was 19.6 µM and the GI50 (SF-539 CNS) was 3.48 µM. It also gave a TGI (SF-539 CNS) of 14 µM, a GI50 (HT29 colon) of 1.53 µM and a TGI (HT29 colon) of 3.85 µM. It also gave a GI50 (UACC-257 melanoma) of 10.2 µM, a TGI (UACC-257 melanoma) of 26.2 µM and a GI50 (SNB-75 CNS) of 2.74 µM. It also gave a TGI (SNB-75 CNS) of 17.4 µM, a GI50 (MDA-MB-435) of 4.09 µM and a TGI (MDA-MB-435) of 18.1 µM. The GI50 (IGROV1 ovarian) was 4.98 µM, the TGI (IGROV1 ovarian) was > 100 µM and the GI50 (SF-268 CNS) was 3.91 µM. It also gave a TGI (SF-268 CNS) of 23.9 µM, a GI50 (M14 melanoma) of 4.67 µM and a TGI (M14 melanoma) of 17.5 µM. For the same compound, the GI50 (SF-295 CNS) was 3.3 µM, the TGI (SF-295 CNS) was 37.2 µM and the GI50 (HOP-92 NSCLC) was 2.08 µM. It also gave a TGI (HOP-92 NSCLC) of 12.5 µM, a GI50 (SW-620 colon) of 3.43 µM and a TGI (SW-620 colon) of 41.7 µM. It also gave a GI50 (NCI/ADR-RES ovarian) of 3.57 µM, a TGI (NCI/ADR-RES ovarian) of 78.3 µM and a GI50 (COLO 205 colon) of 1.58 µM. For the same compound, the TGI (COLO 205 colon) was 3.55 µM, the GI50 (SNB-19 CNS) was 5.27 µM and the TGI (SNB-19 CNS) was 60.1 µM. The GI50 (SR leukemia) was 2.52 µM, the TGI (SR leukemia) was 8.21 µM and the GI50 (RXF 393 renal) was 5.86 µM. It also gave a TGI (RXF 393 renal) of 25 µM, a GI50 (HOP-62 NSCLC) of 4.66 µM and a TGI (HOP-62 NSCLC) of 44.2 µM. The GI50 (CAKI-1 renal) was 3.9 µM, the TGI (CAKI-1 renal) was > 100 µM and the GI50 (HCT-116 colon) was 2.74 µM. The TGI (HCT-116 colon) was 21.4 µM, the GI50 (OVCAR-5 ovarian) was 4.53 µM and the TGI (OVCAR-5 ovarian) was 46.1 µM. The GI50 (NCI-H522 lung) was 11.2 µM, the TGI (NCI-H522 lung) was 35 µM and the GI50 (SK-MEL-2 melanoma) was 9.7 µM. It also gave a TGI (SK-MEL-2 melanoma) of 31.7 µM, a GI50 (OVCAR-3 ovarian) of 3.62 µM and a TGI (OVCAR-3 ovarian) of 27.5 µM. It also gave a GI50 (TK-10 renal) of 3.91 µM, a TGI (TK-10 renal) of 88 µM and a GI50 (KM12 colon) of 4.15 µM. For the same compound, the TGI (KM12 colon) was 27.2 µM, the GI50 (A549 NSCLC) was 5.29 µM and the TGI (A549 NSCLC) was > 100 µM. For the same compound, the GI50 (K-562 leukemia) was 4.81 µM, the TGI (K-562 leukemia) was 35.2 µM and the GI50 (SK-MEL-5 melanoma) was 4.38 µM. For the same compound, the TGI (SK-MEL-5 melanoma) was 16.5 µM, the GI50 (DU-145 prostate) was 3.8 µM and the TGI (DU-145 prostate) was 55.8 µM. The GI50 (UO-31 renal) was 2.87 µM, the TGI (UO-31 renal) was > 100 µM and the GI50 (MCF7 breast) was 2.78 µM. The TGI (MCF7 breast) was 15.7 µM, the GI50 (SK-OV-3 ovarian) was 3.98 µM and the TGI (SK-OV-3 ovarian) was 32.4 µM. It also gave a GI50 (OVCAR-4 ovarian) of 3.25 µM, a TGI (OVCAR-4 ovarian) of 14 µM and a GI50 (NCI-H226 lung) of 4.12 µM. The TGI (NCI-H226 lung) was 26.8 µM, the GI50 (OVCAR-8 ovarian) was 5.67 µM and the TGI (OVCAR-8 ovarian) was > 100 µM. For the same compound, the GI50 (T-47D breast) was 4.73 µM, the TGI (T-47D breast) was 29.4 µM and the GI50 (ACHN renal) was 3.09 µM. It also gave a TGI (ACHN renal) of 40.4 µM, a GI50 (A498 renal) of 2.85 µM and a TGI (A498 renal) of 14.9 µM. It also gave a GI50 (MOLT-4 leukemia) of 4.58 µM, a TGI (MOLT-4 leukemia) of 33.7 µM and a GI50 (SN12C renal) of 3.82 µM. For the same compound, the TGI (SN12C renal) was > 100 µM, the GI50 (LOX IMVI melanoma) was 2.83 µM and the TGI (LOX IMVI melanoma) was 13.6 µM.
